Data taken from the supplement of paper PMC10627819.

How the values were obtained:
Test in all cases: Bliss interaction score (quartile over a dose matrix) (fitness difference); higher = more antagonism (negative = synergy)
[1] = test system: B. subtilis 168
How it was run: (§1)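 Fitness was OD595 at entry into stationary phase divided by the plate's robust no-drug mean and capped at 1; single-drug fitness was inferred from combination data. The Bliss score is observed minus expected (product) fitness, summarised by quartiles over technical, biological and donor/recipient replicates.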

[2] = test system: S. aureus DSM 20231
How it was run: as §1

[3] = test system: S. aureus Newman
How it was run: as §1

[4] = test system: S. pneumoniae D39V
How it was run: as §1
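Note: first quartile when negative (synergy) and third quartile when positive (antagonism).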

Structure (SMILES)	Bliss interaction score [1]	Bliss interaction score [2]	Bliss interaction score [3]	Bliss interaction score [4]	Bliss interaction score ([1]; main component drawn)	Bliss interaction score ([2]; main component drawn)	Bliss interaction score ([3]; main component drawn)	Bliss interaction score ([4]; main component drawn)
CC(=O)OC[C@H]1O[C@@H]([S-])[C@H](OC(C)=O)[C@@H](OC(C)=O)[C@@H]1OC(C)=O.CCP(CC)CC.[Au+] [Auranofin] + CO/N=C(\C(=O)N[C@@H]1C(=O)N2C(C(=O)[O-])=C(C[N+]3(C)CCCC3)CS[C@H]12)c1csc(N)n1 [Cefepime]	0.046	0.0512	0.0786	0.114	–	–	–	–
CC(=O)OC[C@H]1O[C@@H]([S-])[C@H](OC(C)=O)[C@@H](OC(C)=O)[C@@H]1OC(C)=O.CCP(CC)CC.[Au+] [Auranofin] + CO[C@@H]1[C@@H](OC(N)=O)[C@@H](O)[C@H](Oc2ccc3c(O)c(NC(=O)c4ccc(O)c(CC=C(C)C)c4)c(=O)oc3c2C)OC1(C)C [Novobiocin]	-0.0665	-0.0224	0.105	0.0612	–	–	–	–
CC(=O)OC[C@H]1O[C@@H]([S-])[C@H](OC(C)=O)[C@@H](OC(C)=O)[C@@H]1OC(C)=O.CCP(CC)CC.[Au+] [Auranofin] + CO[C@@]12[C@H](COC(N)=O)C3=C(C(=O)C(C)=C(N)C3=O)N1C[C@@H]1N[C@@H]12 [MitomycinC]	0.0315	-0.0435	0.0961	-0.126	–	–	–	–
CC(=O)OC[C@H]1O[C@@H]([S-])[C@H](OC(C)=O)[C@@H](OC(C)=O)[C@@H]1OC(C)=O.CCP(CC)CC.[Au+] [Auranofin] + CO[C@H]1/C=C/O[C@@]2(C)Oc3c(C)c(O)c4c(O)c(c(/C=N/N5CCN(C)CC5)c(O)c4c3C2=O)NC(=O)/C(C)=C\C=C\[C@H](C)[C@H](O)[C@@H](C)[C@@H](O)[C@@H](C)[C@H](OC(C)=O)[C@@H]1C [Rifampicin]	0.081	0.0331	0.0123	0.0685	–	–	–	–
CC(=O)OC[C@H]1O[C@@H]([S-])[C@H](OC(C)=O)[C@@H](OC(C)=O)[C@@H]1OC(C)=O.CCP(CC)CC.[Au+] [Auranofin] + COc1c(N2C[C@@H]3CCCN[C@@H]3C2)c(F)cc2c(=O)c(C(=O)O)cn(C3CC3)c12 [Moxifloxacin]	0.031	0.0832	0.105	-0.051	–	–	–	–
CC(=O)OC[C@H]1O[C@@H]([S-])[C@H](OC(C)=O)[C@@H](OC(C)=O)[C@@H]1OC(C)=O.CCP(CC)CC.[Au+] [Auranofin] + COc1cc(Cc2cnc(N)nc2N)cc(OC)c1OC [Trimethoprim]	-0.0454	0.0284	-0.0844	-0.0729	–	–	–	–
CC(=O)OC[C@H]1O[C@@H]([S-])[C@H](OC(C)=O)[C@@H](OC(C)=O)[C@@H]1OC(C)=O.CCP(CC)CC.[Au+] [Auranofin] + COc1ccc(C[C@H](N)C(=O)N[C@H]2[C@@H](O)[C@H](n3cnc4c(N(C)C)ncnc43)O[C@@H]2CO)cc1 [Puromycin]	-0.0523	-0.0538	-0.0752	-0.103	–	–	–	–
CC(=O)OC[C@H]1O[C@@H]([S-])[C@H](OC(C)=O)[C@@H](OC(C)=O)[C@@H]1OC(C)=O.CCP(CC)CC.[Au+] [Auranofin] + COc1cccc2c1C(=O)c1c(O)c3c(c(O)c1C2=O)C[C@@](O)(C(=O)CO)C[C@@H]3O[C@H]1C[C@H](N)[C@H](O)[C@H](C)O1 [Doxorubicin]	0.0674	-0.0288	0.112	-0.0943	–	–	–	–
CC(=O)OC[C@H]1O[C@@H]([S-])[C@H](OC(C)=O)[C@@H](OC(C)=O)[C@@H]1OC(C)=O.CCP(CC)CC.[Au+] [Auranofin] + C[C@@H]1O[C@@H]1P(=O)(O)O [Fosfomycin]	0.0301	0.0509	0.0901	-0.0421	–	–	–	–
CC(=O)OC[C@H]1O[C@@H]([S-])[C@H](OC(C)=O)[C@@H](OC(C)=O)[C@@H]1OC(C)=O.CCP(CC)CC.[Au+] [Auranofin] + C[C@@H](O)[C@H]1C(=O)N2C(C(=O)O)=C(SCCNC=N)C[C@H]12 [Imipenem]	-0.0439	-0.0179	0.162	-0.0587	–	–	–	–
CC(=O)OC[C@H]1O[C@@H]([S-])[C@H](OC(C)=O)[C@@H](OC(C)=O)[C@@H]1OC(C)=O.CCP(CC)CC.[Au+] [Auranofin] + C[C@H]1COc2c(N3CCN(C)CC3)c(F)cc3c(=O)c(C(=O)O)cn1c23 [Levofloxacin]	0.044	0.0688	0.0684	-0.0939	–	–	–	–
CC(=O)OC[C@H]1O[C@@H]([S-])[C@H](OC(C)=O)[C@@H](OC(C)=O)[C@@H]1OC(C)=O.CCP(CC)CC.[Au+] [Auranofin] + C[C@H]1c2cccc(O)c2C(=O)C2=C(O)[C@]3(O)C(=O)C(C(N)=O)=C(O)[C@@H](N(C)C)[C@@H]3[C@@H](O)[C@@H]21 [Doxycycline]	0.0704	-0.0178	0.0622	0.052	–	–	–	–
CC(=O)OC[C@H]1O[C@@H]([S-])[C@H](OC(C)=O)[C@@H](OC(C)=O)[C@@H]1OC(C)=O.CCP(CC)CC.[Au+] [Auranofin] + C[n+]1ccc(-c2cc[n+](C)cc2)cc1 [Paraquat]	-0.0338	-0.0369	-0.0941	0.0914	–	–	–	–
CC(=O)OC[C@H]1O[C@@H]([S-])[C@H](OC(C)=O)[C@@H](OC(C)=O)[C@@H]1OC(C)=O.CCP(CC)CC.[Au+] [Auranofin] + Cc1cc(NS(=O)(=O)c2ccc(N)cc2)no1 [Sulfamethoxazol]	-0.0445	-0.0419	-0.0374	0.088	–	–	–	–
CC(=O)OC[C@H]1O[C@@H]([S-])[C@H](OC(C)=O)[C@@H](OC(C)=O)[C@@H]1OC(C)=O.CCP(CC)CC.[Au+] [Auranofin] + Cc1ncc([N+](=O)[O-])n1CCO [Metronidazole]	-0.0357	-0.046	-0.137	0.133	–	–	–	–
CC(=O)OC[C@H]1O[C@@H]([S-])[C@H](OC(C)=O)[C@@H](OC(C)=O)[C@@H]1OC(C)=O.CCP(CC)CC.[Au+] [Auranofin] + Cc1onc(-c2ccccc2)c1C(=O)N[C@@H]1C(=O)N2[C@@H]1SC(C)(C)[C@@H]2C(=O)O [Oxacillin]	-0.0319	0.0406	-0.0535	0.125	–	–	–	–

Structure (SMILES)	Bliss interaction score [1]	Bliss interaction score [2]	Bliss interaction score [3]	Bliss interaction score [4]	Bliss interaction score ([1]; main component drawn)	Bliss interaction score ([2]; main component drawn)	Bliss interaction score ([3]; main component drawn)	Bliss interaction score ([4]; main component drawn)
CC(=O)OC[C@H]1O[C@@H]([S-])[C@H](OC(C)=O)[C@@H](OC(C)=O)[C@@H]1OC(C)=O.CCP(CC)CC.[Au+] [Auranofin] + Clc1ccc(COC(Cn2ccnc2)c2ccc(Cl)cc2Cl)c(Cl)c1 [Miconazole]	0.0318	-0.0279	0.0208	0.086	–	–	–	–
CC(=O)OC[C@H]1O[C@@H]([S-])[C@H](OC(C)=O)[C@@H](OC(C)=O)[C@@H]1OC(C)=O.CCP(CC)CC.[Au+] [Auranofin] + Cn1nnc(-c2ccc(-c3ccc(N4C[C@H](CO)OC4=O)cc3F)cn2)n1 [Tedizolid]	-0.0317	-0.0334	-0.108	0.0602	–	–	–	–
CC(=O)OC[C@H]1O[C@@H]([S-])[C@H](OC(C)=O)[C@@H](OC(C)=O)[C@@H]1OC(C)=O.CCP(CC)CC.[Au+] [Auranofin] + N[C@@H]1CONC1=O [CycloserineD]	0.0806	-0.0513	0.0247	0.106	–	–	–	–
CC(=O)OC[C@H]1O[C@@H]([S-])[C@H](OC(C)=O)[C@@H](OC(C)=O)[C@@H]1OC(C)=O.CCP(CC)CC.[Au+] [Auranofin] + O=C1CN(/N=C/c2ccc([N+](=O)[O-])o2)C(=O)N1 [Nitrofurantoin]	-0.066	-0.0217	-0.132	-0.421	–	–	–	–
CC(=O)OC[C@H]1O[C@@H]([S-])[C@H](OC(C)=O)[C@@H](OC(C)=O)[C@@H]1OC(C)=O.CCP(CC)CC.[Au+] [Auranofin] + O=C(N[C@H](CO)[C@H](O)c1ccc([N+](=O)[O-])cc1)C(Cl)Cl [Chloramphenicol]	0.0717	0.0319	0.0594	-0.0406	–	–	–	–
CC(=O)OC[C@H]1O[C@@H]([S-])[C@H](OC(C)=O)[C@@H](OC(C)=O)[C@@H]1OC(C)=O.CCP(CC)CC.[Au+] [Auranofin] + O=C(O)[C@H]1/C(=C/CO)O[C@@H]2CC(=O)N21 [Clavulanic]	-0.0681	-0.188	0.167	-0.0729	–	–	–	–
CC(=O)OC[C@H]1O[C@@H]([S-])[C@H](OC(C)=O)[C@@H](OC(C)=O)[C@@H]1OC(C)=O.CCP(CC)CC.[Au+] [Auranofin] + O=C(O)c1cn(C2CC2)c2cc(N3CCNCC3)c(F)cc2c1=O [Ciprofloxacin]	0.0472	0.0217	0.0727	-0.11	–	–	–	–
CC(=O)OC[C@H]1O[C@@H]([S-])[C@H](OC(C)=O)[C@@H](OC(C)=O)[C@@H]1OC(C)=O.CCP(CC)CC.[Au+] [Auranofin] + O=C(O[C@@H]1Cc2c(O)cc(O)cc2O[C@@H]1c1cc(O)c(O)c(O)c1)c1cc(O)c(O)c(O)c1 [EGCG]	0.0518	-0.0255	-0.0511	0.08	–	–	–	–
CC(=O)OC[C@H]1O[C@@H]([S-])[C@H](OC(C)=O)[C@@H](OC(C)=O)[C@@H]1OC(C)=O.CCP(CC)CC.[Au+] [Auranofin] + Oc1cc(Cl)ccc1Oc1ccc(Cl)cc1Cl [Triclosan]	-0.0277	-0.0223	-0.0211	0.106	–	–	–	–
O=C(N[C@H](CO)[C@H](O)c1ccc([N+](=O)[O-])cc1)C(Cl)Cl [Chloramphenicol] + CC1(C)S[C@@H]2[C@H](NC(=O)Cc3ccccc3)C(=O)N2[C@H]1C(=O)O [PenicillinG]	0.0719	0.0631	-0.0428	-0.0461	–	–	–	–
O=C(N[C@H](CO)[C@H](O)c1ccc([N+](=O)[O-])cc1)C(Cl)Cl [Chloramphenicol] + CC(=O)O[C@H]1C[C@@]2(C)[C@@H](C[C@@H](O)[C@H]3[C@@]4(C)CC[C@@H](O)[C@@H](C)[C@@H]4CC[C@@]32C)/C1=C(\CCC=C(C)C)C(=O)O [Fusidic acid]	0.074	0.0319	-0.0559	-0.103	–	–	–	–
O=C(N[C@H](CO)[C@H](O)c1ccc([N+](=O)[O-])cc1)C(Cl)Cl [Chloramphenicol] + CCC(C)C1C(=O)NC(=C)C(=O)NC(C(=O)NC(CSCC(C(=O)N1)NC(=O)/C(=C/C)/NC(=O)C(C(C)CC)N)C(=O)NC2C(SCC(NC(=O)CNC(=O)C3CCCN3C2=O)C(=O)NC(CCCCN)C(=O)NC4C(SCC(NC(=O)CNC(=O)C(NC(=O)C(NC(=O)C(NC(=O)CNC4=O)C)CC(C)C)CCSC)C(=O)NC(CC(=O)N)C(=O)NC(CCSC)C(=O)NC(CCCCN)C(=O)NC5C(SCC6C(=O)NC(C(=O)NC(CSC(C(C(=O)N6)NC(=O)C(NC5=O)C)C)C(=O)NC(CO)C(=O)NC(C(C)CC)C(=O)NC(CC7=CN=CN7)C(=O)NC(C(C)C)C(=O)NC(=C)C(=O)NC(CCCCN)C(=O)O)CC8=CN=CN8)C)C)C)CC(C)C [Nisin]	–	–	–	–	0.0397	-0.0704	0.0543	-0.102
O=C(N[C@H](CO)[C@H](O)c1ccc([N+](=O)[O-])cc1)C(Cl)Cl [Chloramphenicol] + CC[C@H]1OC(=O)[C@H](C)C(=O)[C@H](C)[C@@H](O[C@@H]2O[C@H](C)C[C@H](N(C)C)[C@H]2O)[C@](C)(OC)C[C@@H](C)C(=O)[C@H](C)[C@H]2N(CCCCn3cnc(-c4cccnc4)c3)C(=O)O[C@]12C [Telithromycin]	-0.0575	-0.104	-0.0946	-0.0437	–	–	–	–
O=C(N[C@H](CO)[C@H](O)c1ccc([N+](=O)[O-])cc1)C(Cl)Cl [Chloramphenicol] + CC[C@H]1OC(=O)[C@H](C)[C@@H](O[C@H]2C[C@@](C)(OC)[C@@H](O)[C@H](C)O2)[C@H](C)[C@@H](O[C@@H]2O[C@H](C)C[C@H](N(C)C)[C@H]2O)[C@](C)(O)C[C@@H](C)C(=O)[C@H](C)[C@@H](O)[C@]1(C)O [Erythromycin]	0.0488	0.0318	-0.103	0.0269	–	–	–	–
O=C(N[C@H](CO)[C@H](O)c1ccc([N+](=O)[O-])cc1)C(Cl)Cl [Chloramphenicol] + CC[C@H]1OC(=O)[C@H](C)[C@@H](O[C@H]2C[C@@](C)(OC)[C@@H](O)[C@H](C)O2)[C@H](C)[C@@H](O[C@@H]2O[C@H](C)C[C@H](N(C)C)[C@H]2O)[C@](C)(OC)C[C@@H](C)C(=O)[C@H](C)[C@@H](O)[C@]1(C)O [Clarithromycin]	-0.0459	-0.158	-0.129	0.0359	–	–	–	–
